Values joined by “and” are separate entries in the source; they are usually repeats but may differ in a detail not shown here. Identical values can stand only once. Like-named read-outs stand apart in the source and are kept apart here.
Assays:
Asp641 = Asp641 (UniProt position 641, VMKIADFGLAR); experiment: kinetics (surface plasmon resonance); details: 298 K; PBS (pH 7.0-7.4) or 100 mM NaCl with 50 mM Bis-Tris (pH 5.5-6.5); PBS (pH 7.0-7.4) or 50 mM Bis-Tris (pH 5.5-6.5) with 100 mM NaCl. Both contain 50 µM EDTA, 0.05% Surfactant P20 and 1% DMSO.; Non-phosphorylated, initially ligand-free FGFR1 kinase domain immobilised on an NTA chip. The rate reports on the DFG-in to DFG-out transition required for ponatinib binding.
FGFR1 kinase domain [1] = target: T1, FGFR1 kinase domain (Homo sapiens, UniProt P11362, C488A/C584S); experiment: Isothermal titration calorimetry (ITC) of inhibitors binding to FGFR1; details: for heat capacity change ΔCp: ITC titrations at 10-35 °C, slope of ΔH vs T; for -TΔS (ITC) / N (ITC stoichiometry) / ΔG (ITC) / ΔH (ITC): 298.15 K
T1 construct: Human FGFR1 consisting of residues Ala458-Glu765; made in house; host or cells: Escherichia coli, co-expressed with PTP1B
T1 sequence (P11362 458-765 C488A/C584S): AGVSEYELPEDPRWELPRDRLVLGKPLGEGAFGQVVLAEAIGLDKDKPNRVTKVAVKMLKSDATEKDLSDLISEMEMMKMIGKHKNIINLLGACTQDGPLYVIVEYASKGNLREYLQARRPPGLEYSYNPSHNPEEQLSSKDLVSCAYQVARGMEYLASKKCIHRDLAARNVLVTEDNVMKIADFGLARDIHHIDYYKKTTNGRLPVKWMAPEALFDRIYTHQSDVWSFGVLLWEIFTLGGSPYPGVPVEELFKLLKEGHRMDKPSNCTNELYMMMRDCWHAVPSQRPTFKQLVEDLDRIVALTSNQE
Method: ITC experiments were carried out using an ITC200 instrument (Microcal Inc., GE Healthcare)[59]. Final ligand concentrations were achieved by diluting ligand stock solutions in DMSO 1:50 (v/v) in the experimental buffer, resulting in a final DMSO concentration of 2% (v/v). Protein concentration was determined by measuring the absorbance at 280 nm. DMSO concentration in the protein solution was adjusted to 2% (v/v). ITC measurements were routinely performed at 25 °C in 20 mM Tris, pH 7.8, 20 mM NaCl, 2 mM TCEP and 2% DMSO (v/v). The titrations were performed on 10−20 μM FGFR1 in the 200 μl sample cell using 2 μl injections of 0.1−0.2 mM ligand solution every 120 s. To correct for heats of dilution and mixing, the final baseline consisting of small peaks of identical size at the end of the experiment was subtracted. Representative ITC titrations are shown in Supplementary Fig. 2. To determine the heat capacity ΔCp of ligands binding to FGFR1, ITC titrations were performed as described above at 10, 15, 20, 25, 30 and 35 °C. Binding enthalpies derived from ITC experiments were plotted as ΔH against T and ΔCp are given by the slope of the linear regression analysis according to equation (3) (Supplementary Fig. 7): […]

FGFR1 kinase domain [2] = target: T1, FGFR1 kinase domain; experiment: SPR thermodynamic analysis (non-linear van't Hoff); assay type: binding; details: T0=298 K, SPR temperature dependence
Method: (§1) Binding affinities (KD) were therefore determined from dosage experiments and binding responses at equilibrium were fit to a 1:1 steady-state affinity model available within the Scrubber 2 software (BioLogic Software Ltd., Campbell, Australia).
(§2) Transition state thermodynamic quantities were determined from the kinetic association (kon) and dissociation (koff) rate constants as previously described[64] by plotting ln (kh/kBT) versus 1/T according to the linear Eyring equation (2).

N550K mutation in FGFR2 = details: N550K mutant relative to wild-type, BaF3 cells; cited from earlier work
FGFR1 kinase domain [3] = target: T1, FGFR1 kinase domain; experiment: Transition state thermodynamics from linear Eyring plots (SPR rate constants vs temperature); assay type: binding; details: Eyring analysis
Method: as §1, §2
Here k is either the association rate constant (kon) or the dissociation rate constant (koff). ΔH and ΔS are the changes in […] enthalpy and entropy of binding, respectively, while the superscript ‘*' denotes that these refer to a transition state.

FGFR1 Asp623Ala mutant = target: T2, FGFR1 Asp623Ala mutant (Homo sapiens, UniProt P11362, C488A/C584S/D623A); experiment: SPR binding to Asp623Ala mutant of FGFR1 kinase domain; details: data not shown
T2 construct: a construct spanning residues Ala458 to Glu765 of human FGFR1; made in house; host or cells: Escherichia coli
T2 sequence (P11362 458-765 C488A/C584S/D623A): as the sequence (P11362 458-765 C488A/C584S) above, with D166A counted along it
From the text: For our studies of the FGFR1 kinase domain, we have used a construct spanning residues Ala458 to Glu765 of human FGFR1 that contains two mutations (Cys488Ala and Cys584Ser) designed to stabilize the enzyme against covalent aggregation. The protein is non-phosphorylated after co-expression with PTP1B and purification from Escherichia coli. An additional mutation of the catalytic aspartate (Asp623Ala) was introduced for NMR studies to increase further the yield of stable isotope-labelled protein. […] In addition, we have confirmed using surface plasmon resonance (SPR) that binding parameters for a close analogue of the canonical FGFR1 inhibitor PD173074 (ref. [23]; henceforth referred to as PDA; Fig. 1a; Supplementary Fig. 1) are unaltered for the Asp623Ala mutant relative to the kinase-active form (data not shown).

FGFR1 kinase domain [4] = target: T1, FGFR1 kinase domain; experiment: SPR kinetic analysis of inhibitors binding to FGFR1 kinase domain
Method: The hexa-histidine tag was cleaved from protein by overnight treatment with TEV protease and concomitant dialysis, immediately after the IMAC step. Purified protein in a buffer comprising 20 mM Tris-HCl, pH 8.0, 20 mM NaCl, 2 mM TCEP, was snap frozen in liquid nitrogen and stored at −80 °C. For NMR studies, an additional mutation (Asp623Ala) was introduced to improve the yield of stable isotope-labelled FGFR1 kinase protein[22]. Uniform isotopic labelling was achieved by growing E. coli BL21 (DE3) Star cells in D2O-based M9 minimal medium supplemented with ^15NH4Cl (Cambridge Isotope Laboratories or Sigma Aldrich) together with U-[^1H,^13C]- or (for fully deuterated samples) U-[^2H,^13C]-glucose (Cambridge Isotope Laboratories or Sigma Aldrich) as sole nitrogen and carbon sources, respectively. Purification was by IMAC and ion exchange chromatography; the 6 × His tag was not cleaved from the protein used for NMR. Human Abl consisting of residues Ser248-Val534 with an engineered TEV-cleavable N-terminal 6 × His tag and mutation Asn355Ser was expressed and purified as described[50] with minor modifications. For biophysical studies, the 6 × His tag was retained intact for both kinases as it was used for immobilization on a nitrilotriacetic acid (NTA) sensor chip.
Non-phosphorylated, histidine-tagged FGFR1 and non-phosphorylated, histidine-tagged Abl were immobilized as the ligand onto NTA sensor chips using a capture coupling method. The NTA surface was first activated with 500 μM NiSO4 in immobilization buffer. The carboxymethyl dextran surface was then activated with a 1:1 ratio of 0.4 M EDC and 0.1 M NHS. Hexa-histidine-tagged protein was diluted into immobilization buffer to a concentration of 30 μg ml^−1, and immobilized onto the surface with a 7-min injection. Remaining activated groups were blocked with 0.1 M Tris, pH 8.0. […] PBS, pH 7.4, 50 μM EDTA and 0.05% Surfactant P20 (v/v) (for Abl supplemented with 10% glycerol (v/v)) were used as immobilization buffer. […] SPR experiments were performed using the Biacore 3000, Biacore S51 and Biacore T200 biosensors (GE Healthcare), with NTA and series S NTA sensor chips (GE Healthcare). All FGFR1 binding experiments were done using PBS (pH range 7.0–7.4), 50 μM EDTA, 0.05% Surfactant P20 (v/v) and 1% DMSO (v/v) or 50 mM Bis-Tris (pH range 5.5–6.5), 100 mM NaCl, 50 μM EDTA, 0.05% Surfactant P20 (v/v) and 1% DMSO (v/v), as running buffer. All Abl binding experiments were conducted using PBS, pH 7.4, 50 μM EDTA, 0.05% Surfactant P20 (v/v), 10% glycerol (v/v) and 1% DMSO (v/v) as running buffer. […] Finally, they were diluted 1:100 (v/v) in running buffer without DMSO to achieve the target concentration resulting in a final DMSO concentration of 1% (v/v).
The highest compound concentration varied, but for all analytes five sequential injections with constant injection time and a constant dilution factor were done. All analyte concentrations were injected in one cycle, one after the other for 120 s with a short dissociation phase in between injections (∼60 s) and with a longer dissociation phase at the end of the cycle (1,000 to 20,000 s that varied depending on the expected dissociation rate constant of the analyte). Zero-buffer blank injections were included for referencing. Biacore T200 evaluation software and BIAevaluation 4.1 software, respectively, were used for processing and analysing data. Rate constants were calculated globally from the obtained sensorgram data by fitting to a 1:1 interaction model. Representative sensorgrams are shown in Supplementary Fig. 6. Multi-cycle kinetic analysis was carried out as previously described. Binding affinities (KD) were calculated from the equation KD=koff/kon.

Molecule | heat capacity change ΔCp (FGFR1 kinase domain [1]) [cal mol^−1 K^−1] | -TΔS (ITC) (FGFR1 kinase domain [1]; ITC) [kcal/mol] | N (ITC stoichiometry) (FGFR1 kinase domain [1]; ITC) | ΔG (ITC) (FGFR1 kinase domain [1]; ITC) [kcal/mol] | ΔH (ITC) (FGFR1 kinase domain [1]; ITC) | ΔG0 van't Hoff (FGFR1 kinase domain [2]) [kcal/mol] | ΔH0 van't Hoff (FGFR1 kinase domain [2]) | −TΔS0 van't Hoff (FGFR1 kinase domain [2]) [kcal/mol] | effect of FGFR2 N550K mutation on inhibitor potency (N550K mutation in FGFR2) | further results
Fibroblast growth factor receptor 1 (FGFR1) kinase domain (Homo sapiens; C488A;C584S) | – | – | – | – | – | – | – | – | – | pKa (Asp641): 6.25
SU5402 | -172 | 2.7 ± 0.2 | 1.0±0.04 | -9.7 ± 0.1 | -12.4 kcal/mol and -12.4 ± 0.2 kcal/mol | -9.5 ± 0.02 | -14.2 kcal/mol and -14.2 ± 0.8 kcal/mol | 4.8 ± 0.8 | – | –
CCN(CC)CCCCNc1ncc2cc(-c3cc(OC)cc(OC)c3)c(NC(=O)NC(C)(C)C)nc2n1 [PD173074] | – | – | – | – | – | – | – | – | confers resistance | –
Cc1ccc(C(=O)Nc2ccc(CN3CCN(C)CC3)c(C(F)(F)F)c2)cc1C#Cc1cnc2cccnn12 [ponatinib] | – | – | – | – | – | – | – | – | enhanced inhibitory potency against this mutant relative to wild-type | –
CCN(CC)CCCNc1ncc2cc(-c3cc(OC)cc(OC)c3)c(NC(=O)NC(C)(C)C)nc2n1 [PDA] | -359 | 1.1 ± 0.0 | 0.8±0.02 | -11.0 ± 0.0 | -12.1 kcal/mol and -12.1 ± 1.8 kcal/mol | -11.1 ± 0.02 | -11.5 kcal/mol and -11.5 ± 0.8 kcal/mol | 0.4 ± 0.8 | – | Kd (FGFR1 kinase domain [1]; ITC, 298 K): 8.8 nM; ΔG# ass (transition state free-energy barrier, association) (FGFR1 kinase domain [3]; association phase): 8.7 ± 1.8 kcal/mol and 8.7 kcal/mol; ΔH# ass (transition state enthalpy, association) (FGFR1 kinase domain [3]; association phase): 16.6 ± 1.3 kcal/mol and 16.6 kcal/mol; −TΔS# ass (transition state entropy, association) (FGFR1 kinase domain [3]; association phase): -7.9 ± 1.3 kcal/mol and -7.9 kcal/mol; -TΔS# diss (FGFR1 kinase domain [3]; dissociation phase): -5.3 ± 1.8 kcal/mol; ΔG# diss (FGFR1 kinase domain [3]; dissociation phase): 19.5 ± 2.6 kcal/mol; ΔH# diss (FGFR1 kinase domain [3]; dissociation phase): 24.8 ± 1.8 kcal/mol; binding parameters for Asp623Ala mutant relative to the kinase-active form (FGFR1 Asp623Ala mutant): unaltered; KD, fold weaker in the presence of 1.2 M GdmCl (FGFR1 kinase domain [4]; 1.2 M GdmCl vs absence of GdmCl): ~2 fold; association rate constant as a function of pH (FGFR1 kinase domain [4]; SPR 298 K, pH decreased from 7.4 to 5.5): no dependence on pH; kon (FGFR1 kinase domain [4]; SPR, 1.2 M GdmCl in PBS running buffer, read-out: association rate constant kon in the presence of 1.2 M GdmCl): 680000 M⁻¹ s⁻¹; koff (FGFR1 kinase domain [4]; SPR, 1.2 M GdmCl in PBS running buffer, read-out: dissociation rate constant koff in the presence of 1.2 M GdmCl): 0.0018 s⁻¹; Kd (FGFR1 kinase domain [4]; SPR, 298 K, pH 7.4, read-out: KD (koff/kon)): 5.7 nM; kon (FGFR1 kinase domain [4]; SPR, 298 K, pH 7.4, read-out: association rate constant kon): 1.6e+06 M⁻¹ s⁻¹; koff (FGFR1 kinase domain [4]; SPR, 298 K, pH 7.4, read-out: dissociation rate constant koff): 0.0092 s⁻¹
